Assay results taken from US8198317B2, “Methylenedioxy phenolic compounds and their use to treat disease” (The Ohio State University Research Foundation, priority 2008, dated 2012).

What was measured:
Assay type in all cases: in vivo, human
Patient = assay: Treatment of a patient with recent myocardial infarction (Examples 16-18); conditions: oral, 1.0 to 100 mg/kg
Protocol: (§1) A person presents with sudden chest pain typically radiating to the left arm or left side of the neck, shortness of breath, nausea and palpitation with vomiting and sweating. After being evaluated with an electrocardiogram (EKG, ECG), a chest X-ray and blood tests to detect elevations in cardiac markers (blood tests to detect heart muscle damage), they are diagnosed as suffering from myocardial infarction. The patient is administered therapy such as aspirin, a drug to reduce the tendency of platelet aggregation, such as clopidogrel bisulfate, a statin, IV heparin and taken to the catheterization laboratory where they undergo stenting of the coronary artery. They are allowed to recover for a 12-24 hour period. Oral therapy with 3,4-methylenedioxy-6-nitrophenyl acetate (INV 75) (1.0 to 100 mg/kg) is started and continued for at least a year. During the follow-up visit a month later, patient reports improvement in symptoms.
as §1, with “Oral therapy with 3,4-methylenedioxy-6-nitrophenyl acetate (INV 75) (1.0 to 100 mg/kg) is started and continued for at least a year. During the follow-up visit a month later, patient reports improvement in symptoms.” left out
A person presents with sudden chest pain typically radiating to the left arm or left side of the neck, shortness of breath, nausea and palpitation with vomiting and sweating. After being evaluated with an electrocardiogram (EKG, ECG), a chest X-ray and blood tests to detect elevations in cardiac markers (blood tests to detect heart muscle damage), they are diagnosed as suffering from myocardial infarction. […]

Humans = assay: Treatment of atherosclerosis in humans, primary prevention (Example 22); conditions: oral, in excess of 12 months
Text: Individuals with risk factors for atherosclerosis such as family history, hypertension and high cholesterol are known to be at risk for future cardiovascular events such as heart attacks and strokes. These individuals are on primary prevention treatments such as hypolipidemic drug therapy such as statins aspirin and anti-hypertensive agents such as ACE inhibitors, diuretics or calcium channel blockers. They also will receive an acceptable dose of a composition comprising a compound of the present invention in an acceptable carrier orally chronically for durations in excess of 12 months. In one study, 3,4-methylenedioxy phenyl acetate (INV 73); 3,4-methylenedioxy-6-nitrophenol (INV 74); 3,4-methylenedioxy-6-nitrophenyl acetate (INV 75); 3,4-Methylenedioxy 6-nitro phenyl lipoate (INV-7465) or 3,4-Methylenedioxy phenyl lipoate (INV-7065) are administered to these individuals. A repeat IVUS measurement is made at the end of the treatment period to assess the effect of the infusion of the composition on coronary atherosclerosis in the target vessel.

Cardiovascular Patient = assay: Treatment of a cardiovascular patient with chest pain (Examples 8-10); conditions: 1.0 to 100 mg/kg
Protocol: A person presents with uncomfortable pressure, squeezing and pain in the center of their chest as well as in shoulders, arms, neck, jaw and back. […] After being evaluated with an angiography, they are diagnosed as suffering from atherosclerosis with plaque formation in the coronary arteries. The patient is administered a composition comprising an effective amount of 3,4-methylenedioxy-6-nitrophenyl acetate (INV 75) (1.0 to 100-mg/kg). Alternate therapies include, 3,4-methylenedioxy phenyl acetate (INV 73); 3,4-methylenedioxy-6-nitrophenol (INV 74; 3,4-Methylenedioxy 6-nitro phenyl lipoate (INV-7465) or 3,4-Methylenedioxy phenyl lipoate (INV-7065). The composition is optionally administered in conjunction with therapy such as administration of aspirin, a drug to reduce the tendency of platelet aggregation, such as clopidogrel bisulfate, a statin, an angiotensin converting enzyme inhibitor, and/or heparin or a combination thereof, using dosages known to one of ordinary skill in the art. Patient reports improvement in the chest pain, shortness of breath. They are again evaluated with an angiography to measure reduced plaque in their arteries.
A person presents with uncomfortable pressure, squeezing and pain in the center of their chest for less than 30 minutes. They are taken to the cardiac angiography suite for suspected unstable angina. […] After being evaluated with an angiography, they are diagnosed as suffering from atherosclerosis with plaque formation in the coronary arteries. The patient is administered a composition comprising an effective amount of 3,4-Methylenedioxy phenyl lipoate (INV-7065) (1.0 to 100 mg/kg). […] They are again evaluated with an angiography to measure reduced plaque in their arteries.
A person presents with uncomfortable pressure, squeezing and pain in the center of their chest for less than 30 minutes. […] After being evaluated with an angiography, they are diagnosed as suffering from atherosclerosis with plaque formation in the coronary arteries. […] They are again evaluated with an angiography to measure reduced plaque in their arteries.

SMILES | symptoms at follow-up visit a month later (Patient) | plaque in the atherosclerotic coronary artery (IVUS) (Humans) | chest pain, shortness of breath (Cardiovascular Patient)
CC(=O)Oc1cc2c(cc1[N+](=O)[O-])OCO2 [INV-75, 3,4-methylenedioxy-6-nitrophenyl acetate] | improvement | reduced | improvement
O=C(CCCCC1CCSS1)Oc1ccc2c(c1)OCO2 (stereo not drawn) [INV-7065, 3,4-Methylenedioxy phenyl lipoate] | improvement | reduced | improvement
O=C(CCCCC1CCSS1)Oc1cc2c(cc1[N+](=O)[O-])OCO2 (stereo not drawn) [INV-7465, 3,4-Methylenedioxy 6-nitro phenyl lipoate] | improvement | reduced | improvement
